Assay results from paper PMC9696794, “Synthesis and Antimicrobial Activity of Short Analogues of the Marine Antimicrobial Peptide Turgencin A: Effects of SAR Optimizations, Cys-Cys Cyclization and Lipopeptide Modifications” (International Journal of Molecular Sciences, 2022).
Where a SMILES comes first, the peptide text is derived from it. The star is where a group is joined. Lauroyl = CCCCCCCCCCCC(=O)*; Decanoyl = CCCCCCCCCC(=O)*; Octanoyl = CCCCCCCC(=O)*

Legend:
[1] = tested on: fungi (A. pullulans, C. albicans, Rhodotorula sp.); assay: Antifungal MIC assay, all fungi together (range or geometric mean); assay type: cell-based; details: Table S3; MIC >128 set to 128
Protocol: (§1) The synthesized peptides were screened for antifungal activity against the molds A. pullulans (Ap) and Rhodotorula sp. (Rh) (both obtained from Professor Arne Tronsmo, The Norwegian University of Life Sciences, Ås, Norway) and the yeast C. albicans (Ca, ATCC 10231) as previously described. In short, fungal spores were grown in potato dextrose broth media (Difco) containing 2% D(+)-glucose (Merck, Darmstadt, Germany) at 25–30 °C while shaking at 200 rpm overnight. The cultures were diluted with a dextrose media containing glucose to a concentration of approx. 4 × 10^5 spores/mL. Aliquots of the cultures (50 µL) were transferred to 96 well microtiter plates preloaded with the synthetic peptides (50 µL) in two-fold serial dilutions (256 to 1 µg/mL). Polymyxin B and CHX (both with concentrations ranging from 12.5 to 0.09 μg/mL) served as positive antibiotic controls. The microtiter plates containing the fungal spores and the test peptides were incubated at room temperature for 48 h and OD600 was recorded using a Synergy H1 Hybrid microplate reader system (BioTek, Winooski, VT, USA). MIC was defined as the lowest peptide concentration showing an optical density less than 10% of the negative (growth) control. All experiments were performed in triplicate.

[2] = tested on: human red blood cells (RBC); assay: Haemolytic activity assay; assay type: cell-based; details: for Selectivity index (SI) G-: EC50/GM of Gram-negative strains; for Selectivity index (SI) G+: EC50/GM of Gram-positive strains; for Selectivity index (SI) Fungi: EC50/GM of fungi; for RBC Tox. (EC50), haemolytic activity: human RBC, 1 h, 37 °C, concentration giving 50% haemolysis; for SI (selectivity index = EC50/GM): haemolytic EC50 over GM of MIC against all bacterial strains, Table 1
Protocol: The synthetized lipopeptides were screened for haemolytic activity against human red blood cells (RBC), in concentrations ranging from 500 to 3.9 μM, following a previously described protocol. In brief, haemolysis was determined using a heparinizied (10 IU/mL) fraction of freshly drawn human blood. A second fraction of blood, which was collected in test tubes containing ethylenediaminetetraacetic acid (EDTA, Vacutest, KIMA, Arzergrande, Italy), was used for determination of the hematocrit (hct). Plasma was removed from heparinized blood by washing three times with prewarmed phosphate-buffered saline (PBS) before being adjusted to a hematocrit of 4%. Peptides dissolved in dimethyl sulfoxide (DMSO) were further diluted with PBS to a final DMSO content of ≤1%. Triton X-100 (Sigma-Aldrich, St. Louis, MO, USA), used at a final concentration of 0.1%, served as a positive control for 100% haemolysis, whereas 1% DMSO in PBS buffer served as a negative control where no toxicity was detected. Duplicates of test solutions and erythrocytes, with 1% hct final concentration, were prepared in a 96-well polypropylene V-bottom plate (Nunc, Fischer scientific, Oslo, Norway). They were incubated under agitation at 37 °C and 800 rpm for 1 h. After centrifugation (5 min, 3000× g), 100 µL from each well were transferred to a flat-bottomed 96-well plate and absorbance was measured at 545 nm with a microplate reader (SpectraMax 190, Molecular Devices, San Jose, CA, USA). After subtracting PBS background, the percentage of haemolysis was calculated as the ratio of the absorbance in the peptide-treated and surfactant-treated samples. Three independent experiments were performed, and EC50 (the concentration giving 50% haemolysis) values are presented as averages.

[3] = tested on: P. aeruginosa (Pa, ATCC 27853); assay: microbe, parasite or virus in culture; assay type: cell-based, Pseudomonas aeruginosa; details: ATCC 27853, 24 h
Protocol: (§2) All cyclic and linear peptides were screened for antibacterial activity against four Gram-positive strains: B. subtilis (Bs, ATCC 23857), C. glutamicum (Cg, ATCC 13032), S. aureus (Sa, ATCC 9144) and S. epidermidis RP62A (Se, ATCC 35984), and two Gram-negative strains: E. coli (Ec, ATCC 25922) and P. aeruginosa (Pa, ATCC 27853). The activity was assessed using a broth microdilution assay according to a modified CLSI-based method. Briefly, overnight bacterial cultures were grown in Mueller–Hinton (MH) broth medium (Difco Laboratories, Detroit, MI, USA) for 2 h at room temperature. The optical density (OD600) was measured, and the bacterial suspensions were adjusted to 2.5–3 × 10^4 CFU/mL in MH medium. The bacterial suspension (50 µL) was distributed in 96-well plates (Nunc, Roskilde, Denmark) preloaded with two-fold dilution series (256 to 1 µg/mL) of peptide solutions (50 µL), giving a final well volume of 100 µL. The microplates were incubated in an EnVision 2103 microplate reader (PerkinElmer, Llantrisant, UK) at 35 °C, with OD595 recorded every hour for 24 h. MIC was defined as the lowest concentration of peptides showing an optical density less than 10% of the negative (growth) control, consisting of bacterial suspension and water. Polymyxin B sulfate (Sigma-Aldrich, St. Louis, MO, USA) and chlorhexidine acetate (CHX, Fresenius Kabi, Halden, Norway), both with concentrations ranging from 12.5 to 0.09 μg/mL, served as positive (growth inhibition) controls. All peptides were tested in triplicate.

A. pullulans (Ap) = assay: microbe, parasite or virus in culture; assay type: cell-based, Aurobasidium pollulans; details: 48 h
Protocol: as §1

[4] = tested on: S. aureus (Sa, ATCC 9144); assay: microbe, parasite or virus in culture; assay type: cell-based, Staphylococcus aureus; details: ATCC 9144, 24 h
Protocol: as §2

[5] = tested on: C. albicans (Ca, ATCC 10231); assay: microbe, parasite or virus in culture; assay type: cell-based, Candida albicans; details: ATCC 10231, 48 h
Protocol: as §1

[6] = tested on: B. subtilis (Bs, ATCC 23857); assay: microbe, parasite or virus in culture; assay type: cell-based, Bacillus subtilis; details: ATCC 23857, 24 h
Protocol: as §2

Rhodotorula sp. (Rh) = assay: microbe, parasite or virus in culture; assay type: cell-based; details: 48 h
Protocol: as §1

[7] = tested on: Gram-positive bacterial strains; details: for GM of MIC G+: Table S3, MIC >256 set to 256
Protocol: as §2

all bacterial strains = assay: Antibacterial MIC assay, all bacterial strains together (range or geometric mean); assay type: cell-based; details: for GM (geometric mean of the MIC values against all bacterial strains): Table 1, six bacterial strains; for GM of MIC Tot. bact.: Table S3, all bacterial test strains, MIC >256 set to 256
Protocol: The selectivity index (SI) of the peptides towards bacteria over eukaryotic cells was calculated using the geometric mean (GM) of the MIC values against all bacterial test strains, according to the method by Orlov et al.. The SI for each peptide was determined as the ratio of the RBC-EC50 value by the corresponding GM value. Larger SI values indicate greater selectivity for microbial cells. […] In general, the SI was higher against the Gram-positive bacteral strains than the Gram-negative strains. (Table S3). Overall, peptides displaying EC50 < 100 µg/mL were considered too haemolytic to be of interest for further exploration.
as §2

E. coli (Ec, ATCC 25922) = assay: microbe, parasite or virus in culture; assay type: cell-based, Escherichia coli; details: ATCC 25922, 24 h
Protocol: as §2

[8] = tested on: C. glutamicum (Cg, ATCC 13032); assay: microbe, parasite or virus in culture; assay type: cell-based, Corynebacterium glutamicum; details: ATCC 13032, 24 h
Protocol: as §2

[9] = tested on: S. epidermidis RP62A (Se, ATCC 35984); assay: microbe, parasite or virus in culture; assay type: cell-based, Staphylococcus epidermidis; details: ATCC 35984, 24 h
Protocol: as §2

[10] = tested on: Gram-negative bacterial strains (E. coli and P. aeruginosa); assay: Antibacterial MIC assay, Gram-negative strains together (range or geometric mean); assay type: cell-based; details: Table S3; MIC >256 set to 256
Protocol: as §2

[11] = Table S3, highest tested concentration used where EC50 above it

Row | Compound | GM of MIC Fungi [1] [µg/mL] | Selectivity index (SI) G- [2, 11] | Selectivity index (SI) G+ [2, 11] | Selectivity index (SI) Fungi [2, 11] | RBC Tox. (EC50), haemolytic activity [2] [µg/mL] | Antimicrobial Activity (MIC) Gram − Pa [3] [µg/mL] | Antimicrobial Activity (MIC) Fungi Ap (A. pullulans (Ap)) [µg/mL] | Antimicrobial Activity (MIC) Gram + Sa [4] [µg/mL] | Antimicrobial Activity (MIC) Fungi Ca [5] [µg/mL] | Antimicrobial Activity (MIC) Gram + Bs [6] [µg/mL] | Antimicrobial Activity (MIC) Fungi Rh (Rhodotorula sp. (Rh)) [µg/mL] | GM of MIC G+ [7] [µg/mL] | GM (geometric mean of the MIC values against all bacterial strains) (all bacterial strains) [µg/mL] | GM of MIC Tot. bact. (all bacterial strains) [µg/mL] | Antimicrobial Activity (MIC) Gram − Ec (E. coli (Ec, ATCC 25922)) [µg/mL] | Antimicrobial Activity (MIC) Gram + Cg [8] [µg/mL] | Antimicrobial Activity (MIC) Gram + Se [9] [µg/mL] | GM of MIC G- [10] [µg/mL] | SI (selectivity index = EC50/GM) [2] | other results
1 | CCCCCCCCCCCC(=O)N[C@@H](CS)C(=O)NCC(=O)N[C@@H](CCCCN)C(=O)N[C@@H](CCCCN)C(=O)N1CCC[C@H]1C(=O)NCC(=O)NCC(=O)N[C@@H](Cc1c[nH]c2ccccc12)C(=O)N[C@@H](CCCCN)C(=O)N[C@@H](CS)C(=O)N[C@@H](CCCCN)C(=O)N[C@@H](CC(C)C)C(N)=O [Peptide C12-Turg-1, C12- CGKKPGGWKC KL-NH2] (Lauroyl-CGKKPGGWKCKL-NH2) | 25 | > 86 | > 204 | > 38 | >971 | 16 | 32 | 8 | 64 | 4 | 8 | 5 | 6 | 6 | 8 | 4 | 4 | 11 | – | –
2 | CCCCCCCC(=O)N[C@@H](CS)C(=O)NCC(=O)N[C@@H](CCCCN)C(=O)N[C@@H](CCCCN)C(=O)N[C@@H](Cc1c[nH]c2ccccc12)C(=O)N[C@@H](Cc1c[nH]c2ccccc12)C(=O)NCC(=O)N[C@@H](Cc1c[nH]c2ccccc12)C(=O)N[C@@H](CCCCN)C(=O)N[C@@H](CS)C(=O)N[C@@H](CCCCN)C(=O)N[C@@H](CC(C)C)C(N)=O [Peptide C8-Turg-2, C8- CGKKWWGWKC KL-NH2] (Octanoyl-CGKKWWGWKCKL-NH2) | 40 | 12 | 29 | 5 | 198 | 16 | 32 | 8 | 64 | 8 | 32 | 7 | 9 | 9 | 16 | 4 | 8 | 16 | 22 | MIC against the Gram-positive bacterial strains ([7]; 2 h): 4 to 8 µg/mL
3 | CCCCCCCCCC(=O)N[C@@H](CS)C(=O)NCC(=O)N[C@@H](CCCNC(=N)N)C(=O)N[C@@H](CCCNC(=N)N)C(=O)N[C@@H](Cc1c[nH]c2ccccc12)C(=O)NCC(=O)N[C@@H](Cc1c[nH]c2ccccc12)C(=O)N[C@@H](Cc1c[nH]c2ccccc12)C(=O)N[C@@H](CCCNC(=N)N)C(=O)N[C@@H](CS)C(=O)N[C@@H](CCCNC(=N)N)C(=O)N[C@@H](CC(C)C)C(N)=O [Peptide C10-Turg-6, C10- CGRRWGWWRC RL-NH2] (Decanoyl-CGRRWGWWRCRL-NH2) | 102 | – | 1 | – | 21 | – | 128 | – | 64 | 8 | 128 | 16 | 23 | 23 | – | 16 | 16 | 45 | – | Selectivity index (SI) Tot. bact. ([2]; Table S3, EC50/GM of all bacterial strains, highest tested concentration used where EC50 above it): 1
4 | CCCCCCCCCCCC(=O)N[C@@H](CS)C(=O)NCC(=O)N[C@@H](CCCNC(=N)N)C(=O)N[C@@H](CCCNC(=N)N)C(=O)N[C@@H](Cc1c[nH]c2ccccc12)C(=O)NCC(=O)N[C@@H](Cc1c[nH]c2ccccc12)C(=O)N[C@@H](Cc1c[nH]c2ccccc12)C(=O)N[C@@H](CCCNC(=N)N)C(=O)N[C@@H](CS)C(=O)N[C@@H](CCCNC(=N)N)C(=O)N[C@@H](CC(C)C)C(N)=O [Peptide C12-Turg-6, C12- CGRRWGWWRC RL-NH2] (Lauroyl-CGRRWGWWRCRL-NH2) | – | – | 2 | – | 39 | – | 128 | – | 64 | 16 | >128 | 19 | 32 | 32 | – | 16 | 16 | – | 1 | –
